Laboratory results taken from patent US8945540B2, “Compositions for enhancing the antibacterial activity of myeloperoxidase and methods of use thereof” (Exoxemis, Inc., priority 2008, dated 2015).

Key:
E. coli = test: MIC, modified CLSI broth microdilution; format: cell-based, Escherichia coli; details: for MIC by the modified method versus published quality control ranges: E. coli ATCC 25922, inoculum prepared in Diluent solution
Description: (§1) All clinical isolates were obtained from the culture collection of Eurofins Medinet Anti-Infective Services (Herndon, Va.), and represent diverse geographical regions. They were originally derived from clinical specimens and identified using standard microbiological methods (see Table 33 below for details). Escherichia coli ATCC 25922, Staphylococcus aureus ATCC 25923, S. aureus ATCC 29213, Pseudomonas aeruginosa ATCC 27853, and Enterococcus faecalis ATCC 29212 were used as quality control strains for the Enhanced MPO Solution and comparator agents to validate the modified Clinical and Laboratory Standards Institute (CLSI, formally NCCLS) broth microdilution method.
(§2) Modifications were made to the standard broth microdilution method to accommodate the rapid in vitro activity of the Enhanced MPO Solution as described below. Each antimicrobial agent and Concentrate solution was diluted in double strength cation-adjusted Mueller-Hinton Broth (CAMHB) and dispensed in mircrodilution trays. All β-hemolytic streptococci were tested in double strength CAMHB supplemented with 5% lysed horse blood. Isolates were prepared by suspending several colonies (four to six) from an overnight culture on Trypticase Soy Agar (TSA) with 5% sheep blood into sterile saline and the density adjusted to a 0.5 McFarland standard (˜10^8 CFU/ml). Standardized bacterial suspensions were further diluted in double strength Diluent solution so that approximately 5×10^5 CFU/ml was mixed with serial drug dilutions. The addition of Diluent solution to the Concentrate solution activates the enzyme system, which in turn exerts its rapid mode of action. The microdilution trays were incubated in ambient air at 35° C. for 18 to 24 h.
(§3) MIC ranges were established for the Enhanced MPO Solution by testing over 20 replicates of one lot of the Enhanced MPO Solution against S. aureus ATCC 29213 and E. coli ATCC 25922. Quality control parameters were then determined for the Enhanced MPO Solution by testing three lots of the Concentrate solution used for preparation of the final Enhanced MPO Solution formulation. Testing was performed in duplicate against S. aureus ATCC 29213 and E. coli ATCC 25922. The effects of modifying the standard broth microdilution test were also assessed with antibiotics with known quality control limits to validate the CLSI broth microdilution method.

S. aureus = test: MIC, modified CLSI broth microdilution; format: cell-based, Staphylococcus aureus; details: S. aureus ATCC 29213; inoculum prepared in Diluent solution
Description: as §1, §2, §3

Candida albicans = test: Myeloperoxidase system with amino acids in the presence of blood (Example 9); format: cell-based; details: MPO 25 μg/mL, GO 8.3 U/mL, L-valine/glycine 2.5 μmol/mL each, beta alanine 5 μmol/mL
Description: (§4) The effect of two way combinations of amino acids glycine and valine, and individually beta alanine, as potential enhancing agents for MPO microbicidal action against Pseudomonas aeruginosa, Staphylococcus aureus and Candida albicans, in the presence of blood, was determined following the procedure of Example 2. Each organism was tested against a single low concentration of MPO (25 μg/mL or 9.4 U/mL) and glucose oxidase (8.3 U/mL). The two amino acid activators were each added at a final concentration of 2.5 μmol/mL and the individual amino acid, beta alanine, was tested at a single concentration of 5 μmol/mL. The effect of no amino acid containing formulations on the myeloperoxidase antimicrobial activity against these organisms was tested for comparison.

Pseudomonas aeruginosa = test: as above; format: cell-based; details: 60 minutes, MPO 25 μg/mL, GO 8.3 U/mL, L-valine/glycine 2.5 μmol/mL each, beta alanine 5 mM
Description: as §4

Bacillus subtilis spores = test: Myeloperoxidase system with beta alanine and L-alanine against spores in the presence of blood; format: cell-based; details: 2 hours, MPO 25 μg/mL (9.4 U/mL), GO 8.3 U/mL
Description: The effect of a two-way combination of beta alanine and L-alanine, as potential enhancing agents, for MPO microbicidal action against Bacillus subtilis spores in the presence of blood, was determined following the procedure of Example 2. However, in this case each test contained a single low concentration of MPO (25 μg/mL or 9.4 U/mL) and glucose oxidase (8.3 U/mL). […] The effect of both L-alanine and beta alanine alone on the myeloperoxidase antimicrobial activity against Bacillus subtilis spores was tested for comparison.
The nature of the relationship between beta alanine and L-alanine was examined following the synergy determination method described above.

Staphylococcus aureus [1] = test: Microbicidal activity of the myeloperoxidase system (p-MPO, glucose oxidase, glucose) with amino acids in the presence of blood, CFU plate counts; synergy determination from these CFU; format: cell-based; details: for Average Viability CFU/ml 50 min / Log Reduction 50 min: single amino acid 2.5 mM, MPO 4.7 U/ml, GO 4.2 U/ml
Method in brief: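 Microbicidal activity of the MPO–glucose oxidase–glucose system against S. aureus with amino acids was assessed in 3% whole blood. Reactions of 1 mL were run at room temperature or 37° C and stopped with catalase. Surviving CFU were counted on trypticase soy agar. For each pair, Actual CFU was divided by Predicted CFU and multiplied by 100. This value was compared with variability-based thresholds to classify synergism, antagonism or additivity.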

Staphylococcus aureus [2] = test: Control: microbicidal activity of the amino acid or analogue alone (no glucose, MPO, glucose oxidase) in the presence of blood; format: cell-based; details: amino acid alone 5 mM; MPO 0; GO 0; no glucose; blood; without replication
Description: As a control to determine the microbicidal activity of the amino acids alone, the foregoing procedure was followed without replication, except in the absence of glucose, MPO, and glucose oxidase.

Acinetobacter species = test: MIC, modified CLSI broth microdilution; format: cell-based; details: Acintobacter spp., 29 clinical isolates
Description: (§5) All clinical isolates were obtained from the culture collection of Eurofins Medinet Anti-Infective Services (Herndon, Va.), and represent diverse geographical regions. […] Escherichia coli ATCC 25922, Staphylococcus aureus ATCC 25923, S. aureus ATCC 29213, Pseudomonas aeruginosa ATCC 27853, and Enterococcus faecalis ATCC 29212 were used as quality control strains for the Enhanced MPO Solution and comparator agents to validate the modified Clinical and Laboratory Standards Institute (CLSI, formally NCCLS) broth microdilution method.
(§6) Modifications were made to the standard broth microdilution method to accommodate the rapid in vitro activity of the Enhanced MPO Solution as described below. Each antimicrobial agent and Concentrate solution was diluted in double strength cation-adjusted Mueller-Hinton Broth (CAMHB) and dispensed in mircrodilution trays. All β-hemolytic streptococci were tested in double strength CAMHB supplemented with 5% lysed horse blood. Isolates were prepared by suspending several colonies (four to six) from an overnight culture on Trypticase Soy Agar (TSA) with 5% sheep blood into sterile saline and the density adjusted to a 0.5 McFarland standard (˜10^8 CFU/ml). Standardized bacterial suspensions were further diluted in double strength Diluent solution so that approximately 5×10^5 CFU/ml was mixed with serial drug dilutions. […]

Aeromonas hydrophilia = test: MIC, modified CLSI broth microdilution; format: cell-based; details: 5 clinical isolates, range for all strains tested
Description: (§7) Modifications were made to the standard broth microdilution method to accommodate the rapid in vitro activity of the Enhanced MPO Solution as described below. Each antimicrobial agent and Concentrate solution was diluted in double strength cation-adjusted Mueller-Hinton Broth (CAMHB) and dispensed in mircrodilution trays. All β-hemolytic streptococci were tested in double strength CAMHB supplemented with 5% lysed horse blood. Isolates were prepared by suspending several colonies (four to six) from an overnight culture on Trypticase Soy Agar (TSA) with 5% sheep blood into sterile saline and the density adjusted to a 0.5 McFarland standard (˜10^8 CFU/ml). Standardized bacterial suspensions were further diluted in double strength Diluent solution so that approximately 5×10^5 CFU/ml was mixed with serial drug dilutions. […] The microdilution trays were incubated in ambient air at 35° C. for 18 to 24 h.

Proteus mirabilis = test: MIC, modified CLSI broth microdilution; format: cell-based; details: 24 clinical isolates
Description: as §5, §6

Klebsiella pneumoniae = test: MIC, modified CLSI broth microdilution; format: cell-based; details: 31 clinical isolates
Description: as §5, §6

Enterobacter cloacae = test: MIC, modified CLSI broth microdilution; format: cell-based; details: 21 clinical isolates
Description: as §5, §6

Citrobacter freundii = test: MIC, modified CLSI broth microdilution; format: cell-based; details: 20 clinical isolates
Description: as §5, §6

P. aeruginosa = test: MIC, modified CLSI broth microdilution; format: cell-based; details: Pseudomonas aeruginosa, 53 clinical isolates
Description: as §7

Pasteurella multocida = test: MIC, modified CLSI broth microdilution; format: cell-based; details: 5 clinical isolates, range for all strains tested
Description: as §7

[3] = Table 4, amino acid 5 mM (none: 0 mM), MPO 38 U/ml, GO 33.3 U/ml, blood
[4] = Table 14, in the presence of blood, 50 min
[5] = Escherichia coli, 52 clinical isolates

Compound: Cc1nnc(SCC2=C(C(=O)O)N3C(=O)[C@@H](NC(=O)Cn4cnnn4)[C@H]3SC2)s1 [cefazolin]
- MIC by the modified method versus published quality control ranges (E. coli): within previously published quality control ranges
- MIC by the modified method versus published quality control ranges (S. aureus): within previously published quality control ranges

Compound: NCCC(=O)O [Beta alanine]
- improvement in microbicidal activity over the MPO system without amino acids (Candida albicans): 1.9 logs
- enhancing effect over the MPO system without amino acids (Pseudomonas aeruginosa): 4.6 logs
- CFU survivors (Bacillus subtilis spores): 3100000 CFU
- Log 10 (CFU + 1) Survivors (Staphylococcus aureus [1]; MPO 25 μg/mL, AA 5 mM, 30 min): 0.0
- Log 10 (CFU + 1) Survivors (Staphylococcus aureus [1]; MPO 25 μg/mL, AA 5 mM, 60 min): 0.0
- Log 10 (CFU + 1) Survivors (Staphylococcus aureus [1]; MPO 25 μg/mL, AA […], 30 min): 0.0
- Log 10 (CFU + 1) Survivors (Staphylococcus aureus [1]; MPO 25 μg/mL, AA […], 60 min): 0.0
- Log 10 (CFU + 1) Survivors (Staphylococcus aureus [1]; MPO 100 μg/mL, AA 5 mM, 30 min): 0.0
- Log 10 (CFU + 1) Survivors (Staphylococcus aureus [1]; MPO 100 μg/mL, AA 5 mM, 60 min): 0.0
- Log 10 (CFU + 1) Survivors (Staphylococcus aureus [1]; MPO 100 μg/mL, AA 20 mM, 30 min): 0.0
- Log 10 (CFU + 1) Survivors (Staphylococcus aureus [1]; MPO 100 μg/mL, AA 20 mM, 60 min): 0.0
- Average Viability CFU/ml 60 min (Staphylococcus aureus [1]; [3]): 0 CFU/ml
- Log Reduction 60 min (Staphylococcus aureus [1]; [3]): 7.4
- Average Viability CFU/ml 50 min (Staphylococcus aureus [1]; [4]): 6000000 CFU/ml
- Log Reduction 50 min (Staphylococcus aureus [1]; [4]): 0.7
- Average Viability CFU/ml 50 min (Staphylococcus aureus [1]; blood): 505000 CFU/ml
- Log Reduction 50 min (Staphylococcus aureus [1]; blood): 1.7
- increased performance over the MPO system without amino acids (Staphylococcus aureus [1]; within 30 minutes, MPO 25 μg/mL, GO 8.3 U/mL, blood, 5 μmol/mL): 6.8 logs
- kill of S. aureus (in words) (Staphylococcus aureus [1]; within 60 minutes, lower concentrations of amino acid and MPO, blood): complete kill
- Average Viability CFU/ml 60 min (Staphylococcus aureus [2]): 25500000 CFU/ml
- Log Reduction 60 min (Staphylococcus aureus [2]): 0.0

Compound: gentamicin
- MIC 50% (Acinetobacter species): 8 µg/mL
- MIC 90% (Acinetobacter species): >32 µg/mL
- MIC by the modified method versus published quality control ranges (E. coli): within previously published quality control ranges
- MIC 50% (E. coli; [5]): 4 µg/mL
- MIC 90% (E. coli; [5]): >32 µg/mL
- MIC Range (Aeromonas hydrophilia): 1 to 4 µg/mL
- MIC 50% (Proteus mirabilis): 8 µg/mL
- MIC 90% (Proteus mirabilis): 8 µg/mL
- MIC 50% (Klebsiella pneumoniae): 4 µg/mL
- MIC 90% (Klebsiella pneumoniae): >32 µg/mL
- MIC 50% (Enterobacter cloacae): 2 µg/mL
- MIC 90% (Enterobacter cloacae): 8 µg/mL
- MIC 50% (Citrobacter freundii): 2 µg/mL
- MIC 90% (Citrobacter freundii): 4 µg/mL
- MIC 50% (P. aeruginosa): 4 µg/mL
- MIC 90% (P. aeruginosa): 16 µg/mL
- MIC Range (Pasteurella multocida): 2 to 16 µg/mL
